Source: patent US7202287B2, “Method and compositions” (Arch Chemicals, Inc., priority 2000, dated 2007)

Columns and labels:
[1] = system: Pseudomonas aeruginosa NCIB 10421; experiment: Minimum inhibitory concentration against mono-cultures, microtitre plate doubling dilutions in nutrient broth; assay type: cell-based; conditions: 24 hours at 37° C., visual inspection
Description: Pseudomonas aeruginosa NCIB 10421 Bacteria were grown to stationary phase (18 h) in nutrient broth (approximately 10^9 organisms per ml). A 0.1% (v/v) inoculum was used to seed fresh medium and 100 μl of the inoculum was then added to each well of a microtitre plate, except for the first well which contained 200 μl. Using doubling dilutions, the concentration of the compounds under investigation were varied in each well along the ordinate axis. The presence or absence of growth was recorded by visual inspection after 24 hours incubation at 37° C. […]

[2] = system: Aspergillus Niger IMI 17454; experiment: Minimum inhibitory concentration against monocultures (fungus); assay type: cell-based; conditions: Example 3, Table 5; biocide alone
Description: Aspergillus Niger IMI 17454 The fungus was maintained on malt agar. The MICs were calculated as described previously in examples 1 and 2.

SMILES | MIC (ppm) against Ps. aeruginosa ([1]; Example 1, Table 1, biocide alone) [ppm] | MIC (ppm) against Ps. aeruginosa ([1]; Example 2, Table 3, biocide alone) [ppm] | MIC (ppm) against Aspergillus Niger [2] [ppm]
O=c1[nH]sc2ccccc12 [BIT, 1,2-benzisothiazolin-3-one] | 32 | – | –
CCCCn1sc2ccccc2c1=O [Butyl BIT, 2n-butyl-1,2-benzisothiazolin-3-one] | – | 125 | 8
